In paper PMC6121902, “Conjugation with Dihydrolipoic Acid Imparts Caffeic Acid Ester Potent Inhibitory Effect on Dopa Oxidase Activity of Human Tyrosinase” (International Journal of Molecular Sciences, 2018):
“And” between values parts separate entries of the source, which are not always exact repeats. Equal values may be shown once. “Also recorded” adds a separate entry of the source. Read-outs that look alike come from different tables or passages of the source.

Assays:
Assay type in all cases: biochemical
[1] = test system: mushroom tyrosinase; assay: Consumption of inhibitor by mushroom tyrosinase (substrate test, HPLC); conditions: 100 μM, 10 min
Protocol: Some tyrosinase inhibitors are also substrates of the enzyme and this is a critical issue because their oxidation can lead to the formation of highly reactive, cytotoxic o-quinones. To rule out this possibility, either LCAME or CAME at 100 μM were exposed to mushroom tyrosinase, in the absence of L-DOPA, and after 10 min, the reaction mixtures were analyzed by HPLC. […] HPLC analyses for determination of the consumption of CAME and LCAME in the presence of mushroom tyrosinase were performed on a Agilent 1100 binary pump instrument equipped with a UV-visible detector using an octadecylsilane-coated column, 250 mm × 4.6 mm, 5 μm particle size (Phenomenex Sphereclone ODS, Bologna, Italy) at 0.7 mL/min, using the following gradient: 0.1% formic acid (eluant a)/ methanol (eluant b): 40% b, 0–10 min; from 40 to 80% b, 47.5–52.5 min; from 80 to 40% b, 52.5–57.5 min. Detection wavelength was set at 280 nm. Stock methanolic solutions of LCAME or CAME, ranging in concentration from 0.02 to 20 mM concentration were prepared dissolving a proper amount of the compound of interest in methanol. 100 μL of these solutions were added to 2 mL of 50 mM phosphate buffer at pH 6.8 (final concentrations range: 0.001–1 mM), in the presence or in the absence of 20 U/mL mushroom tyrosinase. After 10 min incubation at room temperature, 20 μL of a 100 mM solution of L-DOPA or L-tyrosine in 0.6 M HCl, were added (final concentration: 1 mM). Spectrophotometric analysis was performed by measuring the absorbance at 475 nm for 10 min at 2 min intervals. In control experiments, the reaction was run in the absence of LCAME. When required, the experiment was performed as above but adding L-DOP A soon after the addition of LCAME ([…]). In separate experiments, the assay was run as above with LCAME or CAME at 100 μM, in the presence or absence of L-DOPA, and after 10 min the mixture was analyzed by HPLC.

[2] = target: T1, tyrosinase from HBL human melanoma cells (Homo sapiens, UniProt P14679); assay: DO activity of human tyrosinase in HBL cell extracts (MBTH assay, 490 nm); conditions: for Km: read-out: Km (apparent)
T1 construct: endogenous in cells; host or cells: HBL human melanoma cells (detergent-solubilized cell extract)
T1 sequence (P14679 19-529): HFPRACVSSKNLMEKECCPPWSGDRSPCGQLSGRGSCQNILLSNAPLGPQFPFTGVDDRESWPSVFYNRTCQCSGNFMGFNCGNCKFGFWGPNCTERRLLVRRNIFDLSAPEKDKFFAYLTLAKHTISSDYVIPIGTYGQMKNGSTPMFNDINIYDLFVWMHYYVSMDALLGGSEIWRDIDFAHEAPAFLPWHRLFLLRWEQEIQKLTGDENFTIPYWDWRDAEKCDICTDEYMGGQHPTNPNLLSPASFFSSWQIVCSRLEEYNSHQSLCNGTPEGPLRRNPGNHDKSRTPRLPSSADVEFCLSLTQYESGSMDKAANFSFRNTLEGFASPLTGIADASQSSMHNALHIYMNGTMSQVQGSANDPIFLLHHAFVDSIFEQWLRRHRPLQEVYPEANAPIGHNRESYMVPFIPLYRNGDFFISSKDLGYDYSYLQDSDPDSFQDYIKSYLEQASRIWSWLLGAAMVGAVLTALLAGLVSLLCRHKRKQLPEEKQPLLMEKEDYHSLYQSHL
Protocol: In further experiments, the effect of LCAME and LCA was investigated on extracts from HBL human melanoma cells expressing tyrosinase, and the inhibition of DO activity was evaluated. DO activity was determined according to Winder and Harris with some minor modifications: cell extracts were incubated with 3-methyl-2-benzothiazolinone hydrazone (MBTH) and absorbance at 490 nm was measured every 10 min for 1 h.
Cells were solubilized in 1% Igepal, 1% phenylmethylsulfonyl fluoride, 50 mM phosphate buffer (pH 6.8) and centrifuged at 2000 rpm for 5 min.
DO activity determinations were performed according to Winder and Harris with minor modifications. Briefly, cell extracts (usually 50–100 µg protein/assay) were incubated with 5 mM MBTH and 2.5 mM L-DOPA in 50 mM phosphate buffer pH 6.8 in the presence of the indicated concentrations of the compound of choice in a 96-wells plate. DO activity was measured spectrophotometrically in a microplate reader every ten minutes for one hour and was expressed as the slopes calculated with the GraphPad Prism 7 software (Linear Regression, San Diego, CA, USA).
For the analysis of kinetic parameters, the assays were run as above, using different concentrations of L-DOPA (from 0.1 to 2.0 mM) and of the inhibitor (0, 10 and 25 μM) to build the Lineweaver–Burk plot.

[3] = test system: T2, human tyrosinase; assay: TH activity of human tyrosinase; conditions: compared with DO activity
T2 construct: endogenous in cells

[4] = target: mushroom tyrosinase; assay: Mushroom tyrosinase TH activity inhibition (dopachrome formation at 475 nm, L-tyrosine substrate); conditions: 10 min pre-incubation, L-tyrosine 1 mM, tyrosinase 20 U/mL, pH 6.8
Protocol: The inhibition properties of LCAME were preliminarily investigated on mushroom tyrosinase by spectrophotometric monitoring of dopachrome formation, a method which is routinely used for evaluation of the activity of potential tyrosinase inhibitors. L-DOPA was used as the substrate to test DO activity while L-tyrosine was used to test TH activity. LCAME was incubated in 50 mM phosphate buffer in the presence of mushroom tyrosinase (20 U/mL) at room temperature. After 10 min, L-DOPA or L-tyrosine (1 mM final concentration) were added and the absorbance at 475 nm was measured at different times over 10 min. For comparative purposes the effects of CAME were evaluated as well. Stock methanolic solutions of LCAME or CAME, ranging in concentration from 0.02 to 20 mM concentration were prepared dissolving a proper amount of the compound of interest in methanol. 100 μL of these solutions were added to 2 mL of 50 mM phosphate buffer at pH 6.8 (final concentrations range: 0.001–1 mM), in the presence or in the absence of 20 U/mL mushroom tyrosinase. […] Spectrophotometric analysis was performed by measuring the absorbance at 475 nm for 10 min at 2 min intervals. […] In separate experiments, the assay was run as above with LCAME or CAME at 100 μM, in the presence or absence of L-DOPA, and after 10 min the mixture was analyzed by HPLC.

[5] = test system: mushroom tyrosinase; assay: Mushroom tyrosinase DO activity inhibition (dopachrome formation at 475 nm, L-DOPA substrate); conditions: LCAME 0.050 μM
Protocol: The inhibition properties of LCAME were preliminarily investigated on mushroom tyrosinase by spectrophotometric monitoring of dopachrome formation, a method which is routinely used for evaluation of the activity of potential tyrosinase inhibitors. L-DOPA was used as the substrate to test DO activity while L-tyrosine was used to test TH activity. LCAME was incubated in 50 mM phosphate buffer in the presence of mushroom tyrosinase (20 U/mL) at room temperature. After 10 min, L-DOPA or L-tyrosine (1 mM final concentration) were added and the absorbance at 475 nm was measured at different times over 10 min. For comparative purposes the effects of CAME were evaluated as well. Stock methanolic solutions of LCAME or CAME, ranging in concentration from 0.02 to 20 mM concentration were prepared dissolving a proper amount of the compound of interest in methanol. 100 μL of these solutions were added to 2 mL of 50 mM phosphate buffer at pH 6.8 (final concentrations range: 0.001–1 mM), in the presence or in the absence of 20 U/mL mushroom tyrosinase. After 10 min incubation at room temperature, 20 μL of a 100 mM solution of L-DOPA or L-tyrosine in 0.6 M HCl, were added (final concentration: 1 mM). Spectrophotometric analysis was performed by measuring the absorbance at 475 nm for 10 min at 2 min intervals. In control experiments, the reaction was run in the absence of LCAME. When required, the experiment was performed as above but adding L-DOP A soon after the addition of LCAME ([…]). In separate experiments, the assay was run as above with LCAME or CAME at 100 μM, in the presence or absence of L-DOPA, and after 10 min the mixture was analyzed by HPLC.

SMILES: COC(=O)/C=C/c1ccc(O)c(O)c1SCCC(S)CCCCC(=O)O (centres unmarked) [LCAME, 2-S-lipoylcaffeic acid methyl ester]
- consumption of the inhibitor ([1]; absence of L-DOPA): no significant consumption
- consumption of the inhibitor ([1]; presence of L-DOPA): The same result
- IC50 ([2]; DO activity, HBL cell extracts, L-DOPA 2.5 mM, read-out: IC50 (Mean ± SEM)): 30 µM and 30.1 µM
- Ki ([2]; DO activity, competitive model Km^app = Km (1 + [I]/Ki)): 34.7 ± 1.1 µM
- type of inhibition (Lineweaver–Burk) ([2]; L-DOPA 0.1 to 2.0 mM, LCAME 10 or 25 μM): competitive inhibition
- Vmax ([2]; [LCAME] 10 μM): 0.18 ± 0.02 ∆A490/min mg
- Km ([2]; [LCAME] 10 μM): 1430 ± 300 µM
- Vmax ([2]; [LCAME] 25 μM): 0.19 ± 0.03 ∆A490/min mg
- Km ([2]; [LCAME] 25 μM): 1950 ± 500 µM
- inhibitory effect on DO activity ([2]; fixed concentration of 25 μM, HBL cell extracts): significant inhibitory effect
- effect on TH activity of human tyrosinase [3]: weaker; also recorded: much smaller
- IC50 [4]: 0.83 ± 0.09 µM
- inhibition of DO activity ([5]; 10 min pre-incubation): 50 ± 2%
- inhibition of DO activity ([5]; L-DOPA added immediately after LCAME (no pre-incubation)): 42 ± 1%
